What follows are compounds tested against cAMP and cAMP-inhibited cGMP 3',5'-cyclic phosphodiesterase 10A (Homo sapiens, UniProt Q9Y233) (assay: PDE10A assay).
In short: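 Human PDE10A (2 ng/well) preincubated 15 min RT with compound in HEPES pH 7.5, 10 mM MgCl2, BSA, then reacted 15 min with 50 nM [3H]cGMP/cGMP substrate. Stopped with Y-Si SPA beads; bound radioactivity counted, IC50 from four-parameter logistic, pIC50 = −log10(IC50).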

In order of rising IC50:
1. O=C(Nc1sccc1C(=O)N1CCOCC1)c1nc(C2CC2)ccc1Nc1cncnc1 [US8703768, 90]  0.44 nM
2. COc1ccccc1-c1nc2cc(NC(=O)c3c(C(=O)N4CCC4)cnn3C)ccn2n1 [Roche-Dataset for PDE10A, Compound 120]  0.6 nM
3. CN(C)C(=O)c1cnn(C)c1C(=O)Nc1cc2nc(-c3ccccc3)nn2cn1 [Roche-Dataset for PDE10A, Compound 442]  0.81 nM
4. Cn1ncc(C(=O)N2CCC2)c1C(=O)Nc1ccn2nc(-c3cccc(F)c3)nc2c1 [Roche-Dataset for PDE10A, Compound 140]  1.06 nM
5. O=C(Nc1cccc(F)c1C(=O)N1CCC1)c1nc(C2CC2)cnc1Nc1cncnc1 [US8703768, 309]  1.67 nM
6. O=C(Nc1cc(-c2ccccn2)nn1CCO)c1nc(C2CC2)ccc1Nc1cncnc1 [US8470820, 10]  2.25 nM
7. COc1ccc(Cn2nc(CCc3nc4c(Cl)cc(Cl)c(C)n4n3)nc2N2CCCC2)cc1 [Roche-Dataset for PDE10A, Compound 37]  2.58 nM
8. CN(c1nc2cc(NC(=O)c3c(C(=O)N4CCOCC4)cnn3C)ccn2n1)C1CC1 [Roche-Dataset for PDE10A, Compound 418]  2.62 nM
9. Cn1ncc(C(=O)N2CCCC2)c1C(=O)Nc1ccn2nc(N3CCOCC3)nc2c1 [Roche-Dataset for PDE10A, Compound 402]  3.25 nM
10. CC(C)Cn1ccc(NC(=O)c2nc(C3CC3)ccc2Nc2cncnc2)n1 [Roche-Dataset for PDE10A, Compound 624]  5.89 nM
11. COCCNC(=O)c1cc2[nH]c(-c3ccccc3)nc2cc1NC(=O)c1cc(Br)c[nH]c1=O [Roche-Dataset for PDE10A, Compound 303]  7.17 nM
12. Cn1cc(-c2ccccc2)nc1COc1nc2ccccc2nc1N1CCCC1 [Roche-Dataset for PDE10A, Compound 403]  7.71 nM
13. O=C(Nc1cccc(S(=O)(=O)CCO)c1)c1nc(C2CC2)cnc1Nc1cncnc1 [Roche-Dataset for PDE10A, Compound 734]  8.52 nM
14. CC(=O)c1cc(NC(=O)c2nc(C3CC3)cnc2Nc2cncnc2)ccc1F [Roche-Dataset for PDE10A, Compound 869]  9.64 nM
15. O=C(Nc1cnc(Cl)cc1Cl)c1nc(C2CC2)ccc1Nc1cncnc1 [Roche-Dataset for PDE10A, Compound 942]  9.94 nM
16. O=C(Nc1ccn([C@]23C[C@H]4C[C@H](C[C@H](C4)C2)C3)n1)c1nc(C2CC2)ccc1Nc1cncnc1 [Roche-Dataset for PDE10A, Compound 537]  12 nM
17. COCCN(C)C(=O)c1cnn(C)c1C(=O)Nc1ccn2cc(-c3cccc(OCCF)c3)nc2n1 [Roche-Dataset for PDE10A, Compound 45]  13 nM
18. COCc1cnn(C)c1C(=O)Nc1ccn2nc(-c3ccccc3)nc2c1 [Roche-Dataset for PDE10A, Compound 239]  14 nM
19. Cc1nc(-c2ccccc2Cl)n2c3ccc(Cl)cc3c(=O)n(C)c12 [Roche-Dataset for PDE10A, Compound 967]  15 nM
20. O=C(Nc1cccc(N2CCCC2=O)c1)c1nc(C2CC2)cnc1Nc1cncnc1 [Roche-Dataset for PDE10A, Compound 878]  15 nM
21. CCCc1cccc(NC(=O)c2nc(C3CC3)cnc2Nc2cncnc2)n1 [Roche-Dataset for PDE10A, Compound 963]  16 nM
22. Cc1c(NC(=O)c2c(C(=O)N3CCC3)cnn2C)ccn2nc(-c3ccccc3)nc12 [Roche-Dataset for PDE10A, Compound 341]  16 nM
23. O=C1NCc2ccc(NC(=O)c3nc(C4CC4)ccc3Nc3cncnc3)cc21 [Roche-Dataset for PDE10A, Compound 788]  20 nM
24. Cc1ncc(C)n2nc(CCc3nc(N4CC[C@@H](C)C4)nn3C)nc12 [Roche-Dataset for PDE10A, Compound 447]  28 nM
25. Cc1ncc(C)n2nc(/C=C/c3nc(N4CC[C@@H](C)[C@H]4C)nn3C)nc12 [Roche-Dataset for PDE10A, Compound 1115]  32 nM
26. CCOC(=O)c1cnn(C)c1C(=O)Nc1ccn2nc(-c3cccnc3)nc2c1 [Roche-Dataset for PDE10A, Compound 268]  34 nM
27. CC(=O)c1ccc(NC(=O)c2nc(C3CC3)ccc2Nc2cncnc2)s1 [Roche-Dataset for PDE10A, Compound 974]  36 nM
28. CN(C(=O)c1cnn(C)c1C(=O)N[C@@H]1CCn2cc(-c3ccccc3)nc2C1)C1COC1 [Roche-Dataset for PDE10A, Compound 248]  44 nM
29. Cc1ncc(C)n2nc(/C=C/c3nc(N4CC[C@H](C)C4)nn3C)nc12 [Roche-Dataset for PDE10A, Compound 566]  45 nM
30. CNC(=O)c1cc2[nH]c(-c3ccccc3)nc2cc1NC(=O)c1oc(COCc2ccccc2)nc1C [Roche-Dataset for PDE10A, Compound 152]  51 nM
31. O=C(Nc1ccn2nc(-c3ccccc3)nc2c1)c1cc(Cl)nc(N2CCCCC2)c1 [Roche-Dataset for PDE10A, Compound 86]  52 nM
32. Cn1cc(-c2ccccc2)nc1CCc1nc2ccccc2c(=O)[nH]1 [Roche-Dataset for PDE10A, Compound 170]  60 nM
33. CNC(=O)c1cc(NC(=O)c2nc(C3CC3)ccc2Nc2cncnc2)n(C)n1 [Roche-Dataset for PDE10A, Compound 576]  74 nM
34. CNC(=O)c1cc2[nH]c(-c3ccccc3)nc2cc1NC(=O)c1cc(C)n(C(C)(C)C)n1 [Roche-Dataset for PDE10A, Compound 713]  76 nM
35. Cn1ncc(C(=O)N2CCC2)c1C(=O)Nc1ccn(Cc2cn(-c3ccc(Cl)c(Cl)c3)cn2)n1 [Roche-Dataset for PDE10A, Compound 669]  80 nM
36. Cn1ccc(NC(=O)c2nc(C3CC3)ccc2Nc2cncnc2)n1 [Roche-Dataset for PDE10A, Compound 883]  118 nM
37. Cn1cc(-c2ccccc2)nc1COc1ncc(Cl)nc1C(=O)NCc1ccccc1 [Roche-Dataset for PDE10A, Compound 297]  134 nM
38. O=C(NCc1ccc2nccnc2c1)c1nc(C2CC2)cnc1Nc1cncnc1 [Roche-Dataset for PDE10A, Compound 699]  141 nM
39. COCCN(C)C(=O)c1cnn(C)c1C(=O)Nc1ccn2cc(-c3cccc(F)n3)nc2n1 [Roche-Dataset for PDE10A, Compound 81]  163 nM
40. Cc1cc(NC(=O)c2c(C(=O)N3CCC3)cnn2C)cc(NC(=O)OC(C)(C)C)n1 [Roche-Dataset for PDE10A, Compound 1068]  207 nM
41. CC(C)c1ncc(Nc2ccon2)c(C(=O)N[C@@H]2CCN(c3ccc(Cl)cn3)C2)n1 [Roche-Dataset for PDE10A, Compound 212]  232 nM
42. Cn1nc(-c2ccccn2)cc1NC(=O)c1cc(Br)c[nH]c1=O [Roche-Dataset for PDE10A, Compound 636]  295 nM
43. CNC(=O)c1c(-c2nc(CCc3nc4c(C)ncc(C)n4n3)n(C)n2)cnn1C [Roche-Dataset for PDE10A, Compound 290]  337 nM
44. COc1c(C)cnc(CCc2nc(-c3ccccc3)cn2C)c1C [Roche-Dataset for PDE10A, Compound 197]  680 nM
45. O=C(NCC1(c2ccccc2)CCCCC1)c1nc(C2CC2)cnc1Nc1cncnc1 [Roche-Dataset for PDE10A, Compound 804]  728 nM
46. Cn1ncc(C(=O)N2CCC2)c1C(=O)Nc1ccn(C(F)F)n1 [Roche-Dataset for PDE10A, Compound 1100]  761 nM
47. CNC(=O)[C@@H]1CCC[C@H]1NC(=O)c1nc(C2CC2)cnc1Nc1cncnc1 [Roche-Dataset for PDE10A, Compound 971]  1140 nM
48. CN(C)C(=O)c1cc(NC(=O)c2nc(C3CC3)ccc2Nc2cncnc2)[nH]n1 [Roche-Dataset for PDE10A, Compound 748]  1150 nM
49. CCOC(=O)c1cc(NC(=O)c2c(C(=O)N3CCC3)cnn2C)nn1C [Roche-Dataset for PDE10A, Compound 959]  1340 nM
50. O=C(N[C@@H](CO)Cc1ccccc1)c1nc(C2CC2)cnc1Nc1cncnc1 [Roche-Dataset for PDE10A, Compound 641]  1430 nM
51. Cc1ncc(C)n2nc(CCc3nc(C(=O)N(C)C)cn3C)nc12 [Roche-Dataset for PDE10A, Compound 609]  1590 nM
52. Cn1nccc1NC(=O)c1c(C(=O)N2CCC2)cnn1C [Roche-Dataset for PDE10A, Compound 1138]  1920 nM
53. CCOC(=O)c1cnn(C)c1C(=O)Nc1ccc2nc(N3CCOCC3)nn2c1 [Roche-Dataset for PDE10A, Compound 1117]  1990 nM
54. O=C(Nc1nnc(-c2ccccn2)o1)c1nc(C2CC2)ccc1Nc1cncnc1 [US8470820, 64]  2580 nM
55. Cn1ncc(C(=O)NCc2cc(C(F)(F)F)ccn2)c1C(=O)Nc1ccn2cc(-c3ccccc3)nc2n1 [Roche-Dataset for PDE10A, Compound 1156]  2760 nM
56. Cc1cc(NC(=O)c2c(C(=O)N3CCC3)cnn2C)cc(Br)n1 [Roche-Dataset for PDE10A, Compound 1139]  4650 nM
57. C/C(=C\c1nc2c(C)ncc(C)n2n1)c1nc(Br)nn1C [Roche-Dataset for PDE10A, Compound 1125]  4820 nM
58. CNC(=O)c1c(NC(=O)c2c(C(=O)N3CCC3)cnn2C)cnn1C [Roche-Dataset for PDE10A, Compound 1129]  8330 nM
59. CN(c1cncnc1)c1ccc(C2CC2)nc1C(=O)N[C@@H]1CCN(c2ccc(Br)cn2)C1 [Roche-Dataset for PDE10A, Compound 95]  8340 nM
60. Cn1ncc(C(=O)N2CCOCC2)c1C(=O)Nc1cn(-c2cccc(C(F)(F)F)n2)cn1 [Roche-Dataset for PDE10A, Compound 719]  8860 nM
61. Cc1noc(C(F)(F)F)c1C(=O)Nc1ccn2nc(-c3ccccc3)nc2c1 [Roche-Dataset for PDE10A, Compound 478]  9330 nM
62. CNC(=O)c1cc(NC(=O)c2c(C(=O)N3CCC3)cnn2C)nn1C [Roche-Dataset for PDE10A, Compound 1021]  10000 nM
63. O=C(Nc1ccn2nc(-c3ccccc3)nc2c1)c1ccc(Cl)cn1 [Roche-Dataset for PDE10A, Compound 778]  10000 nM

Source: BindingDB's records for doi:10.1007/s10822-022-00478-x (Roche Innovation Center Basel, F. Hoffmann-La Roche Ltd., 2022)
